Patent US9458198B1, “Cyclic peptide-based NPR-B agonists” (priority 2009, dated 2016)
Where a SMILES comes first, the peptide text is derived from it. Bridges are numbered along the chain shown (N, C = ends). [ ]: non-standard residue; d: D form. The star is where a group is joined. Hexanoyl = CCCCCC(=O)*

molecular target: T1, NPR-B (Homo sapiens, UniProt P20594); assay: NPR-B induced production of cyclic GMP in GTM-3 cells; type: cell-based; details: Activity (group): NPR-B activation, EC50 and Emax (CNP = 100%)
T1 construct: a functional assay using endogenously NPR-B expressing GTM-3 cells; endogenous in cells; host or cells: GTM-3 (transformed human trabecular meshwork cells)
T1 sequence (P20594 23-1047): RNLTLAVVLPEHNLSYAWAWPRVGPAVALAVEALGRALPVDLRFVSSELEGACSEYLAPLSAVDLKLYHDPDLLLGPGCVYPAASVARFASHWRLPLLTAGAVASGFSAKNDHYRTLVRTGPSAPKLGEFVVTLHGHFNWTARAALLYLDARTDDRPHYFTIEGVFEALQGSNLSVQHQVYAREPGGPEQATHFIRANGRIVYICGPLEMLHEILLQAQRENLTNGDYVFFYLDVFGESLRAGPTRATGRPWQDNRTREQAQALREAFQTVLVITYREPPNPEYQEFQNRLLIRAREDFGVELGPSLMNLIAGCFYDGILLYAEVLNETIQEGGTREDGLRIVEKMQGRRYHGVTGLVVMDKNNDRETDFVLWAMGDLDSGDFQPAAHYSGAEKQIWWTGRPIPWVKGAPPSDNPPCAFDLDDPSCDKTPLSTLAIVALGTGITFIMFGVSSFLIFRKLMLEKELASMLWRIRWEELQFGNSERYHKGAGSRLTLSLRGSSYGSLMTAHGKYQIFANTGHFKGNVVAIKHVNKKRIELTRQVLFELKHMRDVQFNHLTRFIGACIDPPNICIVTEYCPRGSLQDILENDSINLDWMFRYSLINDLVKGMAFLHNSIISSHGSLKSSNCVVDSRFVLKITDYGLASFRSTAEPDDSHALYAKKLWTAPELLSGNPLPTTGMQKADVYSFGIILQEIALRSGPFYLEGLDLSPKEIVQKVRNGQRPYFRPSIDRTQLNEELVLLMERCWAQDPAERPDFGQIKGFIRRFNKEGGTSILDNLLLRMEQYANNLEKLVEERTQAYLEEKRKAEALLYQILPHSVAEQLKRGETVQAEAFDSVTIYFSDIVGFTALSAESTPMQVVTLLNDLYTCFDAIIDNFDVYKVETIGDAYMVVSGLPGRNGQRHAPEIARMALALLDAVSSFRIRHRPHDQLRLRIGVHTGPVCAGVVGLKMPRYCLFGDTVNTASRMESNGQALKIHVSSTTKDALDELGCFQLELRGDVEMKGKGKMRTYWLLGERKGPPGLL
Procedure: The efficacy and potency of compounds to activate NPR-B were evaluated in a functional assay using endogenously NPR-B expressing GTM-3 cells (Pang et al. 1994, Curr Eye Res 13:51-63). In this assay the dose dependent production of cyclic GMP (cGMP) is determined and Emax (maximum activation) and EC50 values are calculated.
The cell culture medium is aspirated and each well is washed with 200 μl DMEM/Ham's F12=Medium (Gibco). Then, 200 μl Medium supplemented with 1 mM IBMX (3-Isobutyl-1-methyl-xanthin, Sigma) is added to each well and incubated for 15 min. at room temperature.
Final compound concentrations are in the range from 45 μM to 20 nM.

SMILES | EC50
CCCCCCCC(=O)N[C@H]1CSSC[C@@H](C(N)=O)NC(=O)[C@H](CO)NC(=O)[C@H]([C@@H](C)CC)NC(=O)[C@H](CCCNC(=N)N)NC(=O)[C@H](CC(=O)O)NC(=O)[C@H](CC(C)C)NC(=O)[C@H](CCCCN)NC(=O)[C@H](CC(C)C)NC(=O)CNC(=O)[C@H](Cc2ccccc2)NC(=O)[C@@H](C)NC1=O [compound 68] | < 1 µM

same assay, conditions: Activity (group): NPR-B activation, EC50 and Emax (CNP = 100%), GTM-3 cells; group needs both EC50 and Emax criteria, checked A then B then C

SMILES | EC50
CC[C@H](C)[C@@H]1NC(=O)[C@H](CCCNC(=N)N)NC(=O)[C@H](CC(=O)O)NC(=O)[C@H](CC(C)C)NC(=O)[C@@H]2CCCN2C(=O)[C@H](CC(C)C)NC(=O)CNC(=O)[C@H](Cc2ccccc2)NC(=O)[C@@H](Cc2c[nH]cn2)NC(=O)[C@@H](NC(=O)[C@@H](N)CCSC)CSSC[C@@H](C(N)=O)NC(=O)[C@H](CO)NC1=O [compound 41] (H-MC[dH]FGLPLDRISC-NH2; disulfide 2-13) | < 5 µM
CC[C@H](C)[C@@H]1NC(=O)[C@H](CCCNC(=N)N)NC(=O)[C@H](CC(=O)O)NC(=O)[C@H](CC(C)C)NC(=O)[C@H](CCCCN)NC(=O)[C@H](CC(C)C)NC(=O)CNC(=O)[C@H](Cc2ccccc2)NC(=O)[C@@H](C)NC(=O)[C@@H](NC(=O)c2ccccc2)CSSC[C@@H](C(N)=O)NC(=O)[C@H](CO)NC1=O [compound 66] | < 5 µM
CC[C@H](C)[C@@H]1NC(=O)[C@H](CCCNC(=N)N)NC(=O)[C@H](CC(=O)O)NC(=O)[C@H](CC(C)C)NC(=O)[C@H](CCCCN)NC(=O)[C@H](CC(C)C)NC(=O)CNC(=O)[C@H](Cc2ccccc2)NC(=O)[C@@H](C)NC(=O)[C@@H](NC(=O)Cc2ccccc2)CSSC[C@@H](C(N)=O)NC(=O)[C@H](CO)NC1=O [compound 69] | < 5 µM

same assay, conditions: GTM-3 cells; group needs both EC50 and Emax criteria, checked A then B then C; read-out: Activity (group): NPR-B activation, EC50 and Emax (CNP = 100%)

EC50 | SMILES
< 5 µM | CC[C@H](C)[C@@H]1NC(=O)[C@H](CCCNC(=N)N)NC(=O)[C@H](CC(=O)O)NC(=O)[C@H](CC(C)C)NC(=O)[C@H](CCCNC(=N)N)NC(=O)[C@H](CC(C)C)NC(=O)CNC(=O)[C@H](Cc2ccccc2)NC(=O)[C@@H](Cc2c[nH]cn2)NC(=O)[C@@H](NC(=O)[C@@H](N)CCSC)CSSC[C@@H](C(N)=O)NC(=O)[C@H](CO)NC1=O [compound 42] (H-MC[dH]FGLRLDRISC-NH2; disulfide 2-13)
< 5 µM | CC[C@H](C)[C@@H]1NC(=O)[C@H](CCCNC(=N)N)NC(=O)[C@H](CC(=O)O)NC(=O)[C@H](CC(C)C)NC(=O)[C@H](CCCCN)NC(=O)[C@H](CC(C)C)NC(=O)CNC(=O)[C@H](Cc2ccccc2)NC(=O)[C@H](CO)NC(=O)[C@@H](NC(=O)[C@@H](N)CCSC)CSSC[C@@H](C(N)=O)NC(=O)[C@H](CO)NC1=O [compound 18]
< 5 µM | CSCC[C@H](N)C(=O)N[C@H]1CSSC[C@@H](C(N)=O)NC(=O)[C@H](CO)NC(=O)[C@H](CC(C)C)NC(=O)[C@H](CCCNC(=N)N)NC(=O)[C@H](CC(=O)O)NC(=O)[C@H](CC(C)C)NC(=O)[C@H](CCCCN)NC(=O)[C@H](CC(C)C)NC(=O)CNC(=O)[C@H](Cc2ccccc2)NC(=O)[C@@H](C)NC1=O [compound 56] (H-MC[dA]FGLKLDRLSC-NH2; disulfide 2-13)
< 5 µM | CC[C@H](C)[C@@H]1NC(=O)[C@H](CCCNC(=N)N)NC(=O)[C@H](CC(=O)O)NC(=O)[C@H](CC(C)C)NC(=O)[C@H](CCCCN)NC(=O)[C@H](CC(C)C)NC(=O)CNC(=O)[C@H](Cc2ccccc2)NC(=O)[C@H](Cc2c[nH]cn2)NC(=O)[C@@H](NC(=O)[C@@H](N)CCSC)CSSC[C@@H](C(=O)N[C@@H](Cc2ccc(O)cc2)C(=O)N[C@@H](CCCNC(=N)N)C(N)=O)NC(=O)[C@H](CO)NC1=O [compound 5] (H-MCHFGLKLDRISCYR-NH2; disulfide 2-13)
< 5 µM | CC[C@H](C)[C@@H]1NC(=O)[C@H](CCCNC(=N)N)NC(=O)[C@H](CC(=O)O)NC(=O)[C@H](CC(C)C)NC(=O)[C@H](CCCCN)NC(=O)[C@H](CC(C)C)NC(=O)CNC(=O)[C@H](Cc2ccccc2)NC(=O)[C@H](Cc2c[nH]cn2)NC(=O)[C@@H](NC(=O)[C@@H](N)CCSC)CSSC[C@@H](C(=O)N[C@@H](Cc2ccc(O)cc2)C(=O)N[C@@H](CC(N)=O)C(N)=O)NC(=O)[C@H](CO)NC1=O [compound 27] (H-MCHFGLKLDRISCYN-NH2; disulfide 2-13)
< 1 µM | CCCCCC(=O)N[C@H]1CSSC[C@@H](C(N)=O)NC(=O)[C@H](CO)NC(=O)[C@H]([C@@H](C)CC)NC(=O)[C@H](CCCNC(=N)N)NC(=O)[C@H](CC(=O)O)NC(=O)[C@H]([C@@H](C)CC)NC(=O)[C@H](CCCCN)NC(=O)[C@H](CC(C)C)NC(=O)CNC(=O)[C@H](Cc2ccccc2)NC(=O)[C@@H](C)NC1=O [compound 87] (Hexanoyl-C[dA]FGLKIDRISC-NH2; disulfide 1-12)
< 5 µM | CC[C@H](C)[C@@H]1NC(=O)[C@H](CCCNC(=N)N)NC(=O)[C@H](CC(=O)O)NC(=O)[C@H](CC(C)C)NC(=O)[C@H](CCCCN)NC(=O)[C@H](CC(C)C)NC(=O)CNC(=O)[C@H](Cc2ccccc2)NC(=O)[C@H](C)NC(=O)[C@@H](NC(=O)[C@@H](N)CCSC)CSSC[C@@H](C(N)=O)NC(=O)[C@H](CO)NC1=O [compound 8]
< 5 µM | CC[C@H](C)[C@@H]1NC(=O)[C@H](CCCNC(=N)N)NC(=O)[C@H](CC(=O)O)NC(=O)[C@H](CC(C)C)NC(=O)[C@H](CCCCN)NC(=O)[C@H](CC(C)C)NC(=O)CNC(=O)[C@H](Cc2ccccc2)NC(=O)CNC(=O)[C@@H](NC(=O)[C@@H](N)CCSC)CSSC[C@@H](C(N)=O)NC(=O)[C@H](CO)NC1=O [compound 17]
< 1 µM | CC[C@H](C)[C@@H]1NC(=O)[C@H](CCCNC(=N)N)NC(=O)[C@H](CC(=O)O)NC(=O)[C@H]([C@@H](C)CC)NC(=O)[C@H](CCCCN)NC(=O)[C@H](CC(C)C)NC(=O)CNC(=O)[C@H](Cc2ccccc2)NC(=O)[C@@H](C)NC(=O)[C@@H](NC(=O)[C@@H](N)CCSC)CSSC[C@@H](C(N)=O)NC(=O)[C@H](CO)NC1=O [compound 53] (H-MC[dA]FGLKIDRISC-NH2; disulfide 2-13)
< 5 µM | CC[C@H](C)[C@@H]1NC(=O)[C@H](CCCNC(=N)N)NC(=O)[C@H](CC(=O)O)NC(=O)[C@H](CC(C)C)NC(=O)[C@H](CCCCN)NC(=O)[C@H](CC(C)C)NC(=O)[C@@H](C)NC(=O)[C@H](Cc2ccccc2)NC(=O)CNC(=O)[C@@H](NC(=O)[C@@H](N)CCSC)CSSC[C@@H](C(N)=O)NC(=O)[C@H](CO)NC1=O [compound 34] (H-MCGF[dA]LKLDRISC-NH2; disulfide 2-13)

SMILES | EC50
CCCCCC(=O)N[C@H]1CSSC[C@@H](C(N)=O)NC(=O)[C@H](CO)NC(=O)[C@H]([C@@H](C)CC)NC(=O)[C@H](CCNC(=N)N)NC(=O)[C@H](CC(=O)O)NC(=O)[C@H](CC(C)C)NC(=O)[C@H](CCCCN)NC(=O)[C@H](CC(C)C)NC(=O)CNC(=O)[C@H](Cc2ccccc2)NC(=O)[C@@H](C)NC1=O [compound 114] | < 15 µM
CC[C@H](C)[C@@H]1NC(=O)[C@H](CCCNC(=N)N)NC(=O)[C@H](CC(=O)O)NC(=O)[C@H](CC(C)C)NC(=O)[C@H](CCCCN)NC(=O)[C@H](CC(C)C)NC(=O)CNC(=O)[C@H](Cc2ccccc2)NC(=O)CCCNC(=O)[C@@H](NC(=O)[C@@H](N)CCSC)CSSC[C@@H](C(N)=O)NC(=O)[C@H](CO)NC1=O [compound 32] | < 15 µM
CC[C@H](C)[C@@H]1NC(=O)[C@H](CCCNC(=N)N)NC(=O)[C@H](CC(=O)O)NC(=O)[C@H](CC(C)C)NC(=O)[C@H](CCCCN)NC(=O)[C@H](C)NC(=O)CNC(=O)[C@H](Cc2ccccc2)NC(=O)[C@H](Cc2c[nH]cn2)NC(=O)[C@@H](NC(=O)[C@@H](N)CCSC)CSSC[C@@H](C(N)=O)NC(=O)[C@H](CO)NC1=O [compound 9] (H-MCHFGAKLDRISC-NH2; disulfide 2-13) | < 15 µM
CC[C@H](C)[C@@H]1NC(=O)[C@H](CCCNC(=N)N)NC(=O)[C@H](CC(=O)O)NC(=O)[C@H](CC(C)C)NC(=O)[C@H](CCCCN)NC(=O)[C@H](CC(C)C)NC(=O)CNC(=O)[C@H](Cc2ccccc2)NC(=O)[C@H](Cc2c[nH]cn2)NC(=O)[C@@H](NC(=O)[C@@H](N)CCSC)CSSC[C@@H](C(=O)N[C@@H](Cc2ccc(O)cc2)C(=O)N[C@@H](CO)C(N)=O)NC(=O)[C@H](CO)NC1=O [compound 26] (H-MCHFGLKLDRISCYS-NH2; disulfide 2-13) | < 15 µM
